What was measured:
metalloprotease [1] = experiment: Metalloprotease activity of midgut from larvae treated 24 h (in vivo); parameters: species or system Rhynchophorus ferrugineus; conditions: midgut of fourth instar larvae treated for 24 h
Method: (§1) A substrate azocasein assessed the metalloproteinases activity in the fourth midgut instar larval homogenate. Ten larvae were carefully removed, dissected, and rinsed repeatedly with NaCl solution (0.9% (w/v). […] After homogenization, the homogenates were centrifuged at 5000 rpm (for 30 min) using a Sigma centrifuge 3k30, and the supernatant was utilized to determine enzyme activity and protein content. The supernatant per experiment (10 µL) was incubated for 20 min at 37 °C, and the volume was adjusted to 60 µL using assay buffer pH 8 before adding azocasein (200 µL, 2% (w/v)). In all instances, 10 µL enzyme samples were incubated for 10 min (except EDTA with 20 min), and EDTA was used as a blocker of metalloproteinase activity before being added to the specific substrate. The reaction was interrupted with 300 µL of trichloroacetic acid (TCA cold, 10% (v/v) and continued at 37 °C for 180 min. The reaction mixture was then centrifuged at 5000 rpm for 20 min (Sigma centrifuge 3k30), sodium hydroxide (10 µL of 10 N) was incorporated into the supernatant, then absorbance was determined using an ELISA plate reader at 450 nm. As a blank, an assay mixture devoid of the enzyme was devoted, the specific activity was determined using the OD450 mg^−1 protein min^−1 value, and a blank solution sample devoid of enzyme solution was determined. To learn more about the proteases found in homogenate preparations of R. ferrugineus fourth midgut larval instars, inhibitors from many different types of mechanisms were used. […] As a control, an assay combination devoid of inhibitors was utilized. The absorbance of the enzymes was determined using an ELISA plate quick reader at various wavelengths. The percentage activity of the control enzyme for each inhibitor was evaluated for each enzyme. […] Larvae were exposed for 24 h to leaf discs treated with extract and compounds.

cysteine protease = experiment: Cysteine proteinase activity, Z-Phe-Arg-MNA (in vitro); format: biochemical, Rhynchophorus ferrugineus; conditions: fourth instar larvae midgut homogenate
Method: The activity of cysteine proteinase was determined in the fourth midgut instar larval homogenate of R. ferrugineus using the substrate Z-Phe-Arg-MNA [1]. Ten larvae were carefully removed, dissected, and rinsed repeatedly with NaCl solution (0.9% (w/v). The midgut instar was homogenized in protease assay buffer (500 µL) [5 mM DTT, 50 mM HEPS (N-2-Hydroxyethyl piperazin-N’-2-ethanesulfonic acid), pH 8.0, and 0.1 percent Triton X-100]. The reaction mixture was centrifuged for 30 min at 5000 rpm (Sigma 3k30 cooling centrifuge). The supernatant was utilized to determine the overall activity of proteolytic enzymes and the protein content. The supernatant (10 µL) was incubated for 30 min at 37 °C, and the volume was adjusted to 60 µL using assay buffer (pH 8) before adding 100 µL of substrate (0.5 mM). Prior to adding the substrate, 10 µL enzyme samples were pre-incubated with iodoacetic acid for 10 min. After 60 min at 37 °C of mixture incubation, the reaction was halted with the addition of 1.5 mL mersalyl (5 mM), 0.02 mg/mL fast garnet reactive solution, and 2% Tween 20. The reaction was centrifuged (at 5000 rpm, 6 min), then the absorbance was determined (at 520 nm). The activity of cysteine proteinase was measured using an ELISA quick plate reader at the OD520/60 min/mg of midgut protein. As a blank, a test mixture devoid of enzyme was used. […] The fourth homogenates of midgut larval were produced as reported before in the experiment for determining enzyme activity. As previously disclosed, the inhibitory experiment was performed using a microplate assay. A series of inhibitor concentrations was created to determine the inhibitor’s maximal inhibitory effect. Leupeptin concentrations of 0.01, 0.05, 0.1, and 1.0 mM, PMSF concentrations of 0.1, 1.0, 10, and 50 mM, TLCK and TPCK concentrations of 0.01, 0.05, 0.1, 1, 50, and 100 mM, EDTA concentrations of 0.1, 1, 10, 50, and 100 mM, and iodoacetic acid concentrations of 0.01, 0.05, 0.1, and 1 mM.
As a control, an assay combination devoid of inhibitors was utilized. The absorbance of the enzymes was determined using an ELISA plate quick reader at various wavelengths. The percentage activity of the control enzyme for each inhibitor was evaluated for each enzyme. Protease activity was assayed in vivo in the R. ferrugineus fourth midgut larval instars, which were treated with 1, 10, 50, 100, 500, 1000, and 5000 mg/L of extracts or compounds, measured as described above. Larvae were exposed for 24 h to leaf discs treated with extract and compounds.

total proteases [2] = experiment: Total protease activity of midgut from larvae treated 24 h (in vivo); parameters: species or system Rhynchophorus ferrugineus; conditions: midgut of fourth instar larvae treated for 24 h
Method: (§2) The Lowry technique was used to determine the protein concentrations. Total proteolytic activity was determined in the fourth midgut instar larval (lab strain) homogenate of R. ferrugineus with azocasein in accordance with […] et al. […] [70]. […] Using a Sigma 3k30 cooling centrifuge, reserve homogenates prepared in a previous stage were spun at 5000 rpm for 30 min. Estimates of protein content and total proteolytic enzyme activity were made using the supernatants. The supernatant (10 μL) was incubated at 37 °C for 20 min, and the volume was adjusted to 60 μL using an assay buffer (pH 8), before adding azocasien (200 μL, 2% (w/v)). […] Following that, to activate the reaction, the substrate was introduced 20 min for Leupeptin, so the reaction was halted after 180 min at 37 °C with 300 μL of cool tri-chloroacetic acid (TCA) (10% (v/v). The mixture was centrifuged for 20 min at 5000 rpm (Sigma 3k30 cooling centrifuge). […] To learn more about the proteases found in homogenate preparations of R. ferrugineus fourth midgut larval instars, inhibitors from many different types of mechanisms were used. […] As a control, an assay combination devoid of inhibitors was utilized. The absorbance of the enzymes was determined using an ELISA plate quick reader at various wavelengths. The percentage activity of the control enzyme for each inhibitor was evaluated for each enzyme. […] Larvae were exposed for 24 h to leaf discs treated with extract and compounds.

total proteases [3] = experiment: Total proteolytic activity of fourth instar midgut homogenate, azocasein (in vitro); format: biochemical, Rhynchophorus ferrugineus; conditions: fourth instar larvae midgut homogenate
Method: as §2

[4] = test system: trypsin-like serine proteinase; experiment: Trypsin-like activity of midgut from larvae treated 24 h (in vivo); parameters: species or system Rhynchophorus ferrugineus; conditions: midgut of fourth instar larvae treated for 24 h
Method: The midguts were homogenized in the assay buffer (100 mM Tris-HCl, pH 8.1) and centrifuged for 30 min at 8000 rpm (Sigma 3K 30, rotors No. 12158). […] […] (100 mg/mL in DMF), BAρNA (100 mg/mL in DMSO), and […] (100 mg/mL in DMF) stock substrates were diluted in the assay buffer to 1 mg/mL, and substrate volume was 50 μL. […] The activity was quantified using an ELISA plate reader at a wavelength of 405 nm. As an empty well, an assay combination containing a denaturation enzyme was utilized instead of an active enzyme. […] To learn more about the proteases found in homogenate preparations of R. ferrugineus fourth midgut larval instars, inhibitors from many different types of mechanisms were used. […] As a control, an assay combination devoid of inhibitors was utilized. The absorbance of the enzymes was determined using an ELISA plate quick reader at various wavelengths. The percentage activity of the control enzyme for each inhibitor was evaluated for each enzyme. […] Larvae were exposed for 24 h to leaf discs treated with extract and compounds.

metalloprotease [5] = experiment: Metalloproteinase activity, azocasein (in vitro); format: biochemical, Rhynchophorus ferrugineus; conditions: fourth instar larvae midgut homogenate
Method: as §1

Compound | IC50 against metalloprotease (in vivo) (metalloprotease [1]) | IC50 against cysteine protease (in vitro) (cysteine protease) | IC50 against total proteases (in vivo) (total proteases [2]) | IC50 against total proteases (in vitro) (total proteases [3]) | IC50 against trypsin-like serine proteinase (in vivo) [4] | IC50 against metalloprotease (in vitro) (metalloprotease [5])
O=C(/C=C/c1ccc(O)c(O)c1)O/C=C\c1ccc(O)c(O)c1 [Nepetoidin B] | 95.8 µg/mL | 63.3 µg/mL | 179.4 µg/mL | 102.4 µg/mL | 102.7 µg/mL | 51.1 µg/mL
dicaffeoyl-tartaric acid [Chicoric acid] | 74.2 µg/mL | 81.2 µg/mL | 146.2 µg/mL | 63.1 µg/mL | 75.1 µg/mL | 44.6 µg/mL
O=C(/C=C/c1ccc(O)c(O)c1)O[C@H](Cc1ccc(O)c(O)c1)C(=O)O [Rosmarinic acid] | 86.7 µg/mL | 67.8 µg/mL | 186.2 µg/mL | 109.6 µg/mL | 174.6 µg/mL | 48.4 µg/mL
COc1ccc(-c2cc(=O)c3c(O)c(OC)c(OC)cc3o2)cc1 [Salvigenin, 5-Hydroxy-6,7,4′-trimethoxyflavone] | 113.7 µg/mL | 89.6 µg/mL | 164.8 µg/mL | 72.4 µg/mL | 241.2 µg/mL | 49.1 µg/mL
C[C@@H]1O[C@@H](OC[C@H]2O[C@@H](Oc3c(-c4ccc(O)c(O)c4)oc4cc(O)cc(O)c4c3=O)[C@H](O)[C@@H](O)[C@@H]2O)[C@H](O)[C@H](O)[C@H]1O [Quercetin-3-O-rutinoside] | 612.4 µg/mL | 53.6 µg/mL | 286.4 µg/mL | 82.6 µg/mL | 325.5 µg/mL | 37.3 µg/mL
O=C(O)C[C@H](C(=O)O)[C@@H](O)C(=O)O [Isocitric acid] | 169.2 µg/mL | 119.1 µg/mL | 486.3 µg/mL | 143.3 µg/mL | 314.8 µg/mL | 127.8 µg/mL
